In US9708368B2, “Linear peptide antibiotics” (priority 2012, dated 2017):
In brackets after ≈: the same amount, converted by molar mass. Square brackets hold non-standard residues; d marks the D form. Peptide text beside a SMILES is read from it. * marks the point of attachment. boroAla((+)-pinanediol) = C[C@H](N*)B1O[C@@H]2C[C@@H]3C[C@@H](C3(C)C)[C@]2(C)O1; Biphenylcarbonyl(4'-Bu) = CCCCc1ccc(-c2ccc(C(=O)*)cc2)cc1; X11 = CC[C@H](N*)B1OC2C[C@@H]3C[C@@H](C3(C)C)[C@]2(C)O1; X1 = C[C@H](N*)B1OC2C[C@@H]3C[C@@H](C3(C)C)[C@]2(C)O1; Benzoyl(4-(4-Cl-Ph)) = O=C(c1ccc(-c2ccc(Cl)cc2)cc1)*; Benzoyl(2,3-diOH) = O=C(c1cccc(O)c1O)*; Pro(4R-NH2) = N[C@H]1CN[C@H](C(=O)O)C1; Dopa = N[C@@H](Cc1ccc(O)c(O)c1)C(=O)O; NMeY = CN[C@@H](Cc1ccc(O)cc1)C(=O)O; NMeK = CN[C@@H](CCCCN)C(=O)O; Lauroyl = CCCCCCCCCCCC(=O)*; boroAla = C[C@H](N*)B(O)O; Dab = NCC[C@H](N)C(=O)O; Abu = CC[C@H](N)C(=O)O; Dap = NC[C@H](N)C(=O)O; βAla = NCCC(=O)O

Tests used:
[1] = system: methicillin resistant Staphylococcus aureus (MRSA) strain USA300 (NRS384); conditions: Method B, 35° C., 22 hours
[2] = system: Escherichia coli strain MC4100 IMP-4213, which harbors an LptD mutation; conditions: Method B; E. coli MC4100 IMP-4213 (LptD mutation); 35° C., 22 hours
Protocol: In vitro antimicrobial activity of each compound was determined by measuring minimal inhibitor concentrations (MICs) using the broth micro-dilution technique as approved by the Clinical and Laboratory Standards Institute (CLSI). […] Bacterial inocula were prepared by scraping cells into 1 mL of testing media (cation adjusted Mueller Hinton Broth supplemented with 0.002% v/v Tween-80) and diluting to a final OD600 nm of 0.01.
Test compounds were prepared in DMSO at a concentration of 10 mg/ml. […] Bacterial inocula were added to the two fold serial dilutions of test compounds to a final density of OD OD600 nm of 0.0005 and incubated stationarily at 35° C. for 22 hours, after which the plates were examined visually.

S. aureus SPase = S. aureus SPase (Staphylococcus aureus, UniProt P0A070); assay: biochemical
E. coli SPase = E. coli SPase (Escherichia coli, UniProt P00803); assay: Biochemical SPase activity assay (fluorogenic peptide substrate), E. coli enzyme

| SMILES | MIC (μg/mL) S. aureus [1] [µg/mL] | MIC (μg/mL) E. coli [2] [µg/mL] | IC50 (S. aureus SPase) [nM] | IC50 (E. coli SPase) [nM] |
| --- | --- | --- | --- | --- |
| CCCCc1ccc(-c2ccc(C(=O)N[C@@H](CN)C(=O)N[C@H](C(=O)N[C@@H](C)C(=O)N[C@@H](CCCCN)C(=O)N[C@@H](C)B(O)O)[C@@H](C)O)cc2)cc1 [Compound 162] ({Biphenylcarbonyl(4'-Bu)}-[Dap]TAK-boroAla) | 0.4 (≈ 0.562 µM) | 0.5 (≈ 0.703 µM) | 200 | 12 |
| CCCCc1ccc(-c2ccc(C(=O)N[C@@H](CN)C(=O)N[C@@H](CCCCN)C(=O)N[C@@H](C)C(=O)N[C@@H](CCCCN)C(=O)N[C@@H](C)B(O)O)cc2)cc1 [Compound 186] ({Biphenylcarbonyl(4'-Bu)}-[Dap]KAK-boroAla) | 0.13 (≈ 0.176 µM) | 0.13 (≈ 0.176 µM) | 370 | 6.9 |
| CCCCc1ccc(-c2ccc(C(=O)N[C@@H](CCN)C(=O)N[C@@H](Cc3ccc(O)c(O)c3)C(=O)N[C@@H](C)C(=O)N[C@@H](Cc3ccc(O)c(O)c3)C(=O)N[C@@H](C)B3OC4C[C@@H]5C[C@@H](C5(C)C)[C@]4(C)O3)cc2)cc1 (stereo partly shown) [Compound 189] ({Biphenylcarbonyl(4'-Bu)}-[Dab][Dopa]A[Dopa]-X1) | >64 | 64 (≈ 64.7 µM) | 7700 | 430 |
| CCCCCCCCCCCC(=O)N[C@@H](CCCCN)C(=O)N[C@H](C(=O)N[C@@H](C)C(=O)N[C@@H](CCCCN)C(=O)N[C@@H](C)B1OC2C[C@@H]3C[C@@H](C3(C)C)[C@]2(C)O1)[C@@H](C)O (stereo partly shown) [Compound 141] (Lauroyl-KTAK-X1) | 0.79 (≈ 0.947 µM) | 5.7 (≈ 6.83 µM) | 23 | 33 |
| CCCCc1ccc(-c2ccc(C(=O)N[C@@H](CN)C(=O)N[C@@H](CCC(=O)N[C@H](C)C(=O)O)C(=O)N[C@@H](C)C(=O)N[C@@H](CCCCN)C(=O)N[C@@H](C)B3O[C@@H]4C[C@@H]5C[C@@H](C5(C)C)[C@]4(C)O3)cc2)cc1 [Compound 260] ({Biphenylcarbonyl(4'-Bu)}-[Dap]E(dA)AK-{boroAla((+)-pinanediol)}) | 4 (≈ 4.23 µM) | 1 (≈ 1.06 µM) | 83 | 5.6 |
| CCCCc1ccc(-c2ccc(C(=O)NCCC(=O)N[C@@H](CCCCN)C(=O)N[C@H](C(=O)N[C@@H](CC)C(=O)N[C@@H](CC(N)=O)C(=O)N[C@@H](CC)B3OC4C[C@@H]5C[C@@H](C5(C)C)[C@]4(C)O3)[C@@H](C)O)cc2)cc1 (stereo partly shown) [Compound 205] ({Biphenylcarbonyl(4'-Bu)-βAla}-KT[Abu]N-X11) | 2 (≈ 2.06 µM) | 32 (≈ 32.9 µM) | 20 | 210 |
| CCCCc1ccc(-c2ccc(C(=O)N[C@@H](Cc3c[nH]cn3)C(=O)N[C@H](C(=O)N[C@@H](C)C(=O)N[C@@H](CCCCN)C(=O)N[C@@H](C)B3OC4C[C@@H]5C[C@@H](C5(C)C)[C@]4(C)O3)[C@@H](C)O)cc2)cc1 (stereo partly shown) [Compound 143] ({Biphenylcarbonyl(4'-Bu)}-HTAK-X1) | 0.35 (≈ 0.39 µM) | 5.7 (≈ 6.35 µM) | 180 | 250 |
| CCCCc1ccc(-c2ccc(C(=O)N[C@@H](CCCCN)C(=O)N[C@@H](CCCCN)C(=O)N[C@@H](C)C(=O)N[C@@H](CC(C)C)C(=O)N[C@@H](C)B3OC4C[C@@H]5C[C@@H](C5(C)C)[C@]4(C)O3)cc2)cc1 (stereo partly shown) [Compound 146] ({Biphenylcarbonyl(4'-Bu)}-KKAL-X1) | 0.4 (≈ 0.444 µM) | 0.25 (≈ 0.278 µM) | 160 | 12 |
| CCCCc1ccc(-c2ccc(C(=O)NCCC(=O)N[C@@H](CCCCN)C(=O)N[C@H](C(=O)N[C@@H](C)C(=O)N[C@@H](CCC(=O)O)C(=O)N[C@@H](C)B3OC4C[C@@H]5C[C@@H](C5(C)C)[C@]4(C)O3)[C@@H](C)O)cc2)cc1 (stereo partly shown) [Compound 195] ({Biphenylcarbonyl(4'-Bu)-βAla}-KTAE-X1) | 1.2 (≈ 1.25 µM) | 32 (≈ 33.3 µM) | 2.6 | 19 |
| C[C@H](NC(=O)[C@H](CCCCN)NC(=O)[C@H](C)NC(=O)[C@@H](NC(=O)[C@H](CN)NC(=O)c1ccc(-c2ccc(Cl)cc2)cc1)[C@@H](C)O)B1OC2C[C@@H]3C[C@@H](C3(C)C)[C@]2(C)O1 (stereo partly shown) [Compound 167] ({Benzoyl(4-(4-Cl-Ph))}-[Dap]TAK-X1) | 1.7 (≈ 2.06 µM) | 4 (≈ 4.85 µM) | 190 | 5.2 |
| CCCCc1ccc(-c2ccc(C(=O)N[C@@H](CCN)C(=O)N[C@@H](CCN)C(=O)N[C@@H](C)C(=O)N[C@@H](CCCCNC(=O)c3cccc(O)c3O)C(=O)N[C@@H](C)B3OC4C[C@@H]5C[C@@H](C5(C)C)[C@]4(C)O3)cc2)cc1 (stereo partly shown) [Compound 190] ({Biphenylcarbonyl(4'-Bu)}-[Dab][Dab]AK(Benzoyl(2,3-diOH))-X1) | 64 (≈ 64.3 µM) | >64 | 64000 | 1300 |
| CCCCc1ccc(-c2ccc(C(=O)N[C@H](CO)C(=O)N[C@H](C)C(=O)NCC(=O)N(C)[C@@H](Cc3ccc(O)cc3)C(=O)N[C@@H](C)C(=O)N[C@@H](CC(N)=O)C(=O)N[C@@H](C)B3OC4C[C@@H]5C[C@@H](C5(C)C)[C@]4(C)O3)cc2)cc1 (stereo partly shown) [Compound 227] ({Biphenylcarbonyl(4'-Bu)}-[dS][dA]G[NMeY]AN-X1) | 8 (≈ 7.71 µM) | 13 (≈ 12.5 µM) | 850 | 550 |
| CCCCc1ccc(-c2ccc(C(=O)NCCC(=O)N[C@@H](CCCCN)C(=O)N[C@H](C(=O)N[C@@H](C)C(=O)N[C@@H](CC(C)C)C(=O)N[C@@H](C)B3OC4C[C@@H]5C[C@@H](C5(C)C)[C@]4(C)O3)[C@@H](C)O)cc2)cc1 (stereo partly shown) [Compound 198] ({Biphenylcarbonyl(4'-Bu)-βAla}-KTAL-X1) | 0.5 (≈ 0.53 µM) | 5 (≈ 5.3 µM) | 8.9 | 42 |
| CCCCc1ccc(-c2ccc(C(=O)N[C@H](CO)C(=O)N[C@H](C)C(=O)NCC(=O)N(C)[C@@H](CCCCN)C(=O)N[C@@H](C)C(=O)N[C@@H](CC(N)=O)C(=O)N[C@@H](C)B3OC4C[C@@H]5C[C@@H](C5(C)C)[C@]4(C)O3)cc2)cc1 (stereo partly shown) [Compound 228] ({Biphenylcarbonyl(4'-Bu)}-[dS][dA]G[NMeK]AN-X1) | 5.7 (≈ 5.69 µM) | 2.8 (≈ 2.79 µM) | 270 | 360 |
| CC(C)C[C@H](NC(=O)[C@H](C)NC(=O)[C@H](CCN)NC(=O)[C@H](CCN)NC(=O)c1ccc(-c2ccc(Cl)cc2)cc1)C(=O)N[C@@H](C)B(O)O [Compound 177] ({Benzoyl(4-(4-Cl-Ph))}-[Dab][Dab]AL-boroAla) | 2 (≈ 2.91 µM) | 2 (≈ 2.91 µM) | 640 | 70 |
| CCCCc1ccc(-c2ccc(CNCCC[C@H](N)C(=O)N[C@H](C(=O)N[C@@H](C)C(=O)N[C@@H](CCCCN)C(=O)N[C@@H](C)B3OC4C[C@@H]5C[C@@H](C5(C)C)[C@]4(C)O3)[C@@H](C)O)cc2)cc1 (stereo partly shown) [Compound 274] | 0.13 (≈ 0.151 µM) | 16 (≈ 18.6 µM) | 35 | 1700 |
| CCCCc1ccc(-c2ccc(C(=O)N[C@@H](CCCCN)C(=O)N3C[C@H](N)C[C@H]3C(=O)N[C@@H](C)C(=O)N[C@@H](CC(C)C)C(=O)N[C@@H](C)B(O)O)cc2)cc1 [Compound 152] ({Biphenylcarbonyl(4'-Bu)}-K[Pro(4R-NH2)]AL-boroAla) | 0.4 (≈ 0.534 µM) | 0.5 (≈ 0.667 µM) | 350 | 25 |
| C[C@H](NC(=O)[C@H](CCCCN)NC(=O)[C@H](C)NC(=O)[C@H](CCCCN)NC(=O)[C@H](CN)NC(=O)c1ccc(-c2ccc(Cl)cc2)cc1)B(O)O [Compound 180] ({Benzoyl(4-(4-Cl-Ph))}-[Dap]KAK-boroAla) | 1 (≈ 1.39 µM) | 1 (≈ 1.39 µM) | 280 | 11 |
| CCCCc1ccc(-c2ccc(C(=O)N[C@@H](CCN)C(=O)N[C@@H](Cc3ccc(O)c(O)c3)C(=O)N[C@@H](C)C(=O)N[C@@H](CCCCN)C(=O)N[C@@H](C)B3O[C@@H]4C[C@@H]5C[C@@H](C5(C)C)[C@]4(C)O3)cc2)cc1 [Compound 188] ({Biphenylcarbonyl(4'-Bu)}-[Dab][Dopa]AK-{boroAla((+)-pinanediol)}) | 16 (≈ 17.1 µM) | 8 (≈ 8.53 µM) | 2900 | 120 |
